According to US6337338B1, “Heteroaryl-aryl ureas as IGF-1 receptor antagonists” (Telik, Inc., priority 1998, dated 2002):

Experiments:
[1] = biological target: T1, IGF-1R-cytoplasmic kinase domain (IGF-1R-CKD; amino acids 959-1367 of IGF-1R) (Homo sapiens, UniProt P08069); test: IGF-1R substrate assay (KS2 phosphorylation); format: biochemical; conditions: compounds 50 μM; 50 μM ATP; KS2-biotin substrate
T1 construct: amino acids 959-1367 of IGF-1R
Protocol: Nunc Maxisorp plates were coated with 100 μL 10 μg/mL-streptavidin at […] The plates were washed in 20 mM Tris pH7.6, 150 mM NaCl, 0.05% Tween 20, 0.8 mM Na3VO4, and 0.04% Biocide between all steps of the assay. The plates were blocked in 200 μL 50 mM Hepes/150 mM NaCl/0.1% Triton-X 100 overnight at 4° C. or for 2 hr at 25-37° C.
Aliquots of the IGF-1R-cytoplasmic kinase domain (IGF-1R-CKD; amino acids 959-1367 of IGF-1R) were purified and stored at −80° C. until use. KS2 (GPWLEEEEEAYGWMDF; SEQ ID NO:1), gastrin (1-17) that is a substrate for many tyrosine kinases including the insulin receptor, was synthesized as a biotin conjugate (KS2-biotin) (Baldwin et al., Nature, 301:435-37 (1983)). The assay mixture consisted of 0.2 μg/mL IGF-1R-CKD (concentration adjusted for optimal response), 300-900 nM KS2-biotin (depending on optimal response), 2 mM […], 5 mM MgCl2 (4-10 mM […] can be substituted), compounds to be tested (50 μM) or their vehicle, and 50 μM ATP. The start of phosphorylation begins with the addition of ATP. Incubation was continued for 10-30 minutes, at which time, the reaction was stopped through the quenching the metals with 20 mM EDTA (final concentration).
The reaction was diluted 1:10 in buffer A (2 mM HEPES pH 7.6, 0.05% Triton X-100, 0.05% bovine serum albumin (BSA)) and 100 μL was captured onto washed, coated and blocked, streptavidin Nunc Maxisorp plate, overnight at 4° C. or 2 hr at 37° C. Anti-phosphotyrosine antibody (12.5 ng/well) conjugated to horseradish peroxidase (RC20:HRPO by Transduction Laboratories ) was diluted into 0.5X Buffer B (25 mM Hepes pH7.6, 75 mM NaCl, 0.025% Tween 20, 2 mM Na3VO4+1% BSA) and incubated for 1.5 to 2 hr at 25° C. The phosphorylated substrate was measured by developing the plate with 100 μL 3′, 3′, 5,5′ tetramethylbenzidine (TMB), and quantified using a plate reader.

[2] = tested on: MCF-10 cells; test: Cell growth inhibition study by protein assay, MCF-10; format: cell-based; conditions: 1 nM IGF-I, FIG. 1a
Protocol: MFC-10 cells were plated as above in DMEM/Ham's F12 medium (DMEM/F12) supplemented with 5% horse serum, 8 ng/ml epidermal growth factor (EGF), 0.5 μg/ml hydrocortisone, 0.1 μg/mL cholera toxin. After 24 hr, cells were washed twice in serum free DMEM/F12, then 0.5 ml DMEM/12 with 0.5% horse serum added with or without test compound, and in the […] of 1 nM IGF-I.

[3] = tested on: MCF-7 or MCF-10 cells; test: Cell proliferation assay (CellTiter 96, MTS); format: cell-based; conditions: 1 nM IGF-1, 48 h, FIG. 2
Protocol: 5000 cells (MCF-7 or MCF-10) were plated into 96 well plates and grown for 24 h as in Example 4, above. Cells were washed in serum free DMEM, then 100 μl media and 1 nM IGF-1 were added to wells in the presence of or absence of compound 5 (see Example 2) and hormone. After 48 h, viability was determined by CellTiter 96™ (Promega). This kit is a chromogenic bioassay procedure for the measurement of cell proliferation. Briefly, 20 μl (3-[4,5,dimethylthiazol-2-yl]-5-[3-carboxymethoxyphenyl]-2-[4-sulfophenyl]-2H-tetrazolium, inner salt (MTS) was added to each well and incubation was continued for 3-4 h. Viable cells reduced the MTS to formazan, which was then measured at 492 nm using an ELISA plate reader. Cell proliferation was calculated based on the increase in the number of viable cells.

[4] = tested on: MCF-7 cells; test: Cell growth inhibition study by protein assay, MCF-7; format: cell-based; conditions: 1 nM IGF-1, 48 h, FIG. 1b
Protocol: 100,000 cells (MCF-7) were plated into 24 well dishes, and grown in complete Dulbecco's modified Eagle's medium (DMEM) supplemented with 10% fetal calf serum (FCS) for 24 h. Cells were washed twice in serum-free DMEM, then 0.5 ml DMEM supplemented with 0^5% FCS […] was added with or without a heteroaryl-aryl compound, compound 5, and in the presence or absence of 1 nM hormone (IGF-1 or insulin, respectively). After 48 h at 37° C., cells were washed twice with phosphate buffered saline (PBS) then solubilized in 0.03% sodium dodecyl sulfate (SDS). Protein was determined using the BCA Protein Assay reagent from Pierce Chemical with BSA serving as a standard.

T1 sequence (P08069 959-1367): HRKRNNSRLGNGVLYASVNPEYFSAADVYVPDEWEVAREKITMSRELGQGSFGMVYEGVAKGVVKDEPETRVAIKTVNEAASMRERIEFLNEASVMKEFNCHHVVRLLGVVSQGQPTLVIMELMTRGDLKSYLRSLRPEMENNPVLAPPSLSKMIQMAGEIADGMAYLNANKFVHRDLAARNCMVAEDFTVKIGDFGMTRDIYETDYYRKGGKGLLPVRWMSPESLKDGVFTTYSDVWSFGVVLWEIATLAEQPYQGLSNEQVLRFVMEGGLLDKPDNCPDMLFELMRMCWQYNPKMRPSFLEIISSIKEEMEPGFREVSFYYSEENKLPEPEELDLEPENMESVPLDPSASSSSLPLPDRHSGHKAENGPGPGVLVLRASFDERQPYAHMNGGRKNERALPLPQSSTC

O=C(Nc1cccc(Cl)c1)Nc1cnc2ccccc2c1 [Compound 10, N-(3-chlorophenyl)-N′-(3-quinolinyl) urea]
inhibition at 50 µM [1]: 26%

COc1ccccc1NC(=O)Nc1nccs1 [Compound 13, N-(2-methoxyphenyl)-N′-(1,3-thiazol-2-yl) urea]
inhibition at 50 µM [1]: 20%

COc1c(Cl)cccc1NC(=O)Nc1nccs1 [Compound 11, N-(2-methoxy-3-chlorophenyl)-N′-(1,3-thiazol-2-yl) urea]
inhibition at 50 µM [1]: 21%

Cc1ccc(NC(=O)Nc2nccs2)cc1Cl [Compound 12, N-(3-chloro-4-methylphenyl)-N′-(1,3-thiazol-2-yl) urea]
inhibition at 50 µM [1]: 21%

Cc1ccc(NC(=O)Nc2cnc3ccccc3c2)cc1Cl [Compound 8, N-(3-chloro-4-methylphenyl)-N′-(3-quinolinyl) urea]
inhibition at 50 µM [1]: 65%

COc1ccc(Cl)cc1NC(=O)Nc1cc(C)nc2ccccc12 [Compound 7, N-(2-methoxy-5-chlorophenyl)-N′-(2-methyl-4-quinolinyl) urea]
inhibition at 50 µM [1]: 23%

O=C(Nc1cc(Cl)cc(Cl)c1)Nc1nccs1 [Compound 14, N-(3,5-dichlorophenyl)-N′-(1,3-thiazol-2-yl) urea]
inhibition at 50 µM [1]: 17%

CCc1ccc(NC(=O)Nc2cccc3cccnc23)cc1 [Compound 9, N-(4-ethylphenyl)-N′-(8-quinolinyl) urea]
inhibition at 50 µM [1]: 33%

COc1c(Cl)cccc1NC(=O)Nc1cc(C)nc2ccccc12 [Compound 5, N-(2-methoxy-3-chlorophenyl)-N′-(2-methyl-4-quinolinyl) urea]
IGF-1 stimulated cell growth (protein assay) [2]: inhibit IGF-1 stimulated cell growth | inhibition at 50 µM [1]: 21% | IGF-1R stimulated cell proliferation [3]: decrease in IGF-1R stimulated cell proliferation | IGF-1 stimulated cell growth (protein assay) [4]: inhibit IGF-1 stimulated cell growth
